Experiments:
Human NK cells [1] = assay: CellTiterBlue viability measurement on human NK cells; format: cell-based; conditions: 48 hours treatment; 6.25, 12.5, 25 or 50 μM of 6-PN or 8-PN, SAHA in low concentrations; versus untreated control; FIG. 2
Experimental: Human NK cells were treated for 48 hours with 6.25, 12.5, 25 or 50 μM of 6-PN or 8-PN. In the following a viability measurement was carried out (CellTiterBlue Viability Asasy, Promega, Madison, United States of America). The clinically used and established HDACi SAHA (Vorinostat) was used in low concentrations as a reference die for both natural HDACi 6-PN and 8-PN. Shown are the mean values with a standard deviation from three independent experiments with expanded NK cells from three healthy human donors. The horizontal continuous line visualizes the value of the untreated control; a decrease of the fluorescence signal means a reduction of the viability.

Human NK cells [2] = assay: Overall survival of NK cells, trypan blue staining and daily microscopic counting; format: cell-based; conditions: one time treatment with 6.25, 12.5, 25 or 50 μM; versus untreated control and SAHA treated cells; FIG. 3
Experimental: Human NK cells were treated with 6.25, 12.5, 25 or 50 μM of 6-PN or 8-PN. Subsequently via a tryptan blue staining and a daily microscopic counting in standardized C chip counter chambers the overall survival of NK cells was measured. As a reference dye again the HDACi SAHA (Vorinostat) was used. Shown is the average value with standard deviation from three independent experiments with expanded NK cells from three healthy human donors. The left arrow visualizes <10% of living cells in the SAHA treatment group; the right arrow visualizes <10% of living cells in the untreated control group.

human hepG2 tumor cells = assay: NK activity on HepG2 tumor cells by realtime cell monitoring (xCELLigence impedance); format: cell-based
Experimental: In a further experiment the NK activity on human hepG2 tumor cells by means of realtime cell monitoring (Roche Applied Sciences xCELLigence SP-System, Mannheim, Germany) was analyzed. […] The cellular impedance of the adherent tumor cells were measured as parameters for the cell status (cell number, viability, morphology, adhesion). As a positive control for the induction of cell death Triton X-100 was used. Three independent experiments with expanded NK cells from three healthy human donors were carried out. Shown are the average values with standard deviation of one exemplary experiment. The HepG2 tumor cells (target) were incubated at the start of the treatment (24 hours) with 25 μM of 6-PN or 8-PN or with NK cells (effector) (effector to target ratio (E:T)=1.25:1 or 2.5:1) or with the combination of HDACi and NK cells. The normalization happened at the start of the treatment and a decrease of the impedance (normalized cell index) means a reduction of the cell viability or the cell status, respectively.

Hep3B = assay: NK activity on a further tumor cell line by realtime cell monitoring; format: cell-based; conditions: compared with the HepG2 result
[3] = tested on: melanoma tumor cells with adherent immune cells; assay: Primary patient material: melanoma tumor cells with adherent immune cells, tumor cell count; format: cell-based, human; conditions: 12.5 μM or 25 μM; 48, 72, and 96 hours after the start of the treatment; **P<0.01; FIG. 5
[4] = tested on: NK cells of healthy donors; assay: NK cell viability with automated cell counting device (NC-250); format: cell-based, human; conditions: one time 12.5 μM or 25 μM; daily over 336 h; FIG. 6
Experimental: The examination therefore is independent from the experimentator. NK cells of two healthy donors were one time treated with 12.5 μM or 25 μM of 6-PN or 8-PN, respectively, and subsequently two independent points in time on a daily basis examined by means of a nucleo counter NC-250 cell counting device with respect to viability over a time period of 336 h; shown is the average value +/−SD.

PBMCs of healthy donors [5] = assay: PBMC viability with automated cell counting device (NC-250); format: cell-based, human; conditions: one time 12.5 μM or 25 μM; daily over 336 hours; FIG. 7
Experimental: The result is shown in the FIG. 7: PBMCs of three healthy donors were one time treated with 12.5 μM or 25 μM of 6-PN or 8-PN and subsequently on a daily basis at independent points in time examined by means of a nucleo counter NC-250 cell counting device with respect to viability over a time period of 336 hours; shown is the average value +/−SD.

PBMCs of healthy donors [6] = assay: Metabolic activity of PBMCs, Promega CellTiter-Blue Assay; format: cell-based, human; conditions: one time 12.5 μM or 25 μM; after 48 hours; FIG. 8A
Experimental: (§1) The result is shown in the FIG. 8: A PBMCs of two healthy donors were one time treated with 12.5 μM or 25 μM of 6-PN or 8-PN and examined after 48 hours. B NKL cells were one time treated with 12.5 μM or 25 μM of 6-PN or 8-PN and examined after 48 h. In both immune cell populations and in both treatments an increase of a metabolic activity can be detected; shown is the average value +/−SD.

NK cell line NKL = assay: Metabolic activity of NKL cells, Promega CellTiter-Blue Assay; format: cell-based; conditions: one time 12.5 μM or 25 μM; after 48 h; FIG. 8B
Experimental: as §1

[7] = tested on: estrogen receptors of the uterus of rats; conditions: cited from earlier work
[8] = tested on: angiogenesis induced by the basic fibroblast growth factor and the vascular endothelial growth factor; conditions: three dimensional collagen gel; bFGF and VEGF induced; cited from earlier work
angiogenesis = conditions: chorioallantois membrane assays; cited from earlier work
MCF7 cells = conditions: cited from earlier work
P glycoprotein = P glycoprotein (Homo sapiens, UniProt P08183); conditions: cited from earlier work
MRP1 = MRP1 (Homo sapiens, UniProt P33527); conditions: cited from earlier work
[9] = tested on: PI (3) K/Akt signaling pathway; conditions: MCF-7 cells in vitro; cited from earlier work
PC-3 = conditions: in vitro; cited from earlier work
DU145 = conditions: in vitro; cited from earlier work
[10] = tested on: histone deacetylases (HDACs) of classes I, II, and IV; conditions: cited from earlier work

MRP1, sequence (P33527 whole entry): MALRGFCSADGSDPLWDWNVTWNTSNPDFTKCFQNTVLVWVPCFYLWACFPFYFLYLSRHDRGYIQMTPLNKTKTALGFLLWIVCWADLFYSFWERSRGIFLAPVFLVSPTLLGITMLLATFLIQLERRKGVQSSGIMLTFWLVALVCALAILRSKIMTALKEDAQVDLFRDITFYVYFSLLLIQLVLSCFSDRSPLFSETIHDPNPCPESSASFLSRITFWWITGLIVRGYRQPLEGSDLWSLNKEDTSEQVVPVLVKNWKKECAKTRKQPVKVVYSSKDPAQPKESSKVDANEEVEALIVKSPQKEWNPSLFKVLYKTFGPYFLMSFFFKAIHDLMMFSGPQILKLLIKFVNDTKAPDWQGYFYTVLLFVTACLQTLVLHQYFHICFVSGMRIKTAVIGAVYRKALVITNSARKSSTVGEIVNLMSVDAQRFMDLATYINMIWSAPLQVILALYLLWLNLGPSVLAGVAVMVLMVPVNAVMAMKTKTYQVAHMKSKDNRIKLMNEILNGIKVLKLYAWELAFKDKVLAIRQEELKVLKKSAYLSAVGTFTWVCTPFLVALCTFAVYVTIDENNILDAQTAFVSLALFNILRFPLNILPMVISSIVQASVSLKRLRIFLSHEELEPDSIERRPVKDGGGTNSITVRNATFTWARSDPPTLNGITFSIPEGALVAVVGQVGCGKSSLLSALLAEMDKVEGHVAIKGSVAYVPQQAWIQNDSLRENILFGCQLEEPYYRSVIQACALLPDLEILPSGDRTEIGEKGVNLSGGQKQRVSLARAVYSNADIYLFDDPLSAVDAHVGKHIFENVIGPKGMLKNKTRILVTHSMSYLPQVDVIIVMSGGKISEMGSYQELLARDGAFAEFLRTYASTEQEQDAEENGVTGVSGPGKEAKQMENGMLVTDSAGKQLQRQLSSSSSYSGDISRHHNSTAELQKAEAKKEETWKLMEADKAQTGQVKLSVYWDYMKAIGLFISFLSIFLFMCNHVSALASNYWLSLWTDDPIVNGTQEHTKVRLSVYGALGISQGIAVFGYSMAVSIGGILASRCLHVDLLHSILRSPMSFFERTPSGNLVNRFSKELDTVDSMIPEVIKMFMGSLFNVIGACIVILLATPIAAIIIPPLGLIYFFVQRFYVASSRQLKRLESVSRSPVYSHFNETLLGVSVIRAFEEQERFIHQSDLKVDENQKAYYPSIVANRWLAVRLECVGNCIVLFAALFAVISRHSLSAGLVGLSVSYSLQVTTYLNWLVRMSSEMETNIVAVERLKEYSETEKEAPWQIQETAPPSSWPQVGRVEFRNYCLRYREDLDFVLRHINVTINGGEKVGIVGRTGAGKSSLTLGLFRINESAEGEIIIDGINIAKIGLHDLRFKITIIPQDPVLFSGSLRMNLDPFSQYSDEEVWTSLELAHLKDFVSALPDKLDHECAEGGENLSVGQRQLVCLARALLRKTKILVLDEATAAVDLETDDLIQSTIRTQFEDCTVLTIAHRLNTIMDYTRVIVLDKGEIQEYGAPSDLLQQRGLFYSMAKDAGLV
P glycoprotein, sequence (P08183 whole entry): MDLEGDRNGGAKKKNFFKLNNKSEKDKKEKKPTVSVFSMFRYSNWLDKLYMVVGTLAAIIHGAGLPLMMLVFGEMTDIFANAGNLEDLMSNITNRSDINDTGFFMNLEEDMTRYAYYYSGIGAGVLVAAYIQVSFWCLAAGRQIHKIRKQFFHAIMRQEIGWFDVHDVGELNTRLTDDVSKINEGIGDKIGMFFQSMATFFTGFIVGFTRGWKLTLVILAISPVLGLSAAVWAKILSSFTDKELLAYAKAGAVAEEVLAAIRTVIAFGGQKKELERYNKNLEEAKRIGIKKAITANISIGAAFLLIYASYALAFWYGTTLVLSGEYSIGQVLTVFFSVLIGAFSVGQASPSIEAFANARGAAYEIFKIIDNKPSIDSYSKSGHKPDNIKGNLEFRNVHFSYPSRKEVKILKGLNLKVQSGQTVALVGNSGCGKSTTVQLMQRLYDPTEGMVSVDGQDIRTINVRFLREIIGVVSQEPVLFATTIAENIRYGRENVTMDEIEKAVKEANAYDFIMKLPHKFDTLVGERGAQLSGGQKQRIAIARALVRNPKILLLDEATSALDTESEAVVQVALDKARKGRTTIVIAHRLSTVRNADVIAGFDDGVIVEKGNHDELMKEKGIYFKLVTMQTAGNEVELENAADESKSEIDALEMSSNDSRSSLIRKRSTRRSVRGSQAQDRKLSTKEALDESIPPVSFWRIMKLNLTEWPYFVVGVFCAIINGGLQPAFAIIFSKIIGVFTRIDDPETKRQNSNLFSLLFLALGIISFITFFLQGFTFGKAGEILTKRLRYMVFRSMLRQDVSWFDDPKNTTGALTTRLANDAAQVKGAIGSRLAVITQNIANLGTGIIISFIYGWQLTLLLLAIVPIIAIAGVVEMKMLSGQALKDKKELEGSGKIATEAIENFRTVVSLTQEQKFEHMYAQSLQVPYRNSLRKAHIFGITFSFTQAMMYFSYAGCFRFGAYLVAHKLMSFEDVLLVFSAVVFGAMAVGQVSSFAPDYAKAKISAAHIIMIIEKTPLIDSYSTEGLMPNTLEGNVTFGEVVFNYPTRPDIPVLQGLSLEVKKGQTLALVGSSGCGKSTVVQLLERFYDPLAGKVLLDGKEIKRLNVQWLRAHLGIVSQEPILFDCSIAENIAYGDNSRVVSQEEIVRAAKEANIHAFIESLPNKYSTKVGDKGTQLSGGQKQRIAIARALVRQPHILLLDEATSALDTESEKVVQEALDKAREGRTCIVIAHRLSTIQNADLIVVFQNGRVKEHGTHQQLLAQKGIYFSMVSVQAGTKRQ

SMILES | viability of human NK cells (Human NK cells [1]) | survival rate of the NK cells (Human NK cells [2]) | activity of the human NK cells over human tumor cells (normalized cell index) (human hepG2 tumor cells; 25 μM with NK cells, E:T 1.25:1 or 2.5:1, FIG. 4) | sensitivity of HepG2 tumor cells against the compound (human hepG2 tumor cells; compound without NK cells) | activity of NK cells on further tumor cell line (Hep3B) | quantitative evaluation of the tumor cells (melanoma cells) [3] | viability of NK cells of healthy donors [4] | viability of PBMCs of healthy donors (PBMCs of healthy donors [5]) | metabolic activity of PBMCs (PBMCs of healthy donors [6]) | metabolic activity of NKL cells (NK cell line NKL) | binding affinity for estrogen receptors [7] | angiogenesis in vitro [8] | angiogenesis in vivo (angiogenesis) | apoptosis in MCF7 cells (MCF7 cells) | inhibition of the P glycoprotein (P glycoprotein) | inhibition of MRP1 (MRP1) | activation of the PI (3) K/Akt signaling pathway [9] | antiproliferative effects on PC-3 (PC-3) | antiproliferative effects on DU145 (DU145) | inhibition of histone deacetylases (HDACs) of classes I, II, and IV [10]
O=C(CCCCCCC(=O)Nc1ccccc1)NO [SAHA, reference compound] | significant decrease of the viability | – | – | – | – | – | – | – | – | – | – | – | – | – | – | – | – | – | – | –
CC(C)=CCc1c(O)cc(O)c2c1OC(c1ccc(O)cc1)CC2=O (stereo not drawn) [8-PN, 5,7-dihydroxy-2-(4-hydroxy-phenyl)-8-(3-methyl-but-2-enyl)-chroman-4-one] | in parts significant increase of the viability | significantly increased | increased activity of the human NK cells | low sensitivity | equivalent results | significant decrease of the melanoma cells | increase/extend the viability | increase/extend viability | increase the metabolic activity | increase the metabolic activity | strong binding affinity | inhibits the angiogenesis | inhibits the angiogenesis | induces furthermore the apoptosis | inhibition | inhibition | directly inhibits the activation | antiproliferative effects | antiproliferative effects | distinct inhibitors

From patent publication US9855242B2, “Composition for an immunomodulation” (Eberhard Karls Universität Tübingen Medizinische Fakultät, priority 2013, dated 2018)
